Laboratory results: US12622886B2, “Compositions comprising amino acids for prevention and/or treatment of cancer” (Professional Dietetics S.p.A., priority 2020, dated 2026)

System: MCF7 breast cancer cells
Assay: MCF7 proliferation (acid phosphatase assay and Trypan blue exclusion)
Assay type: cell-based, human
Details: 1% α5 for 48 h and 1 μM DOX for 16 h
Description: MCF-7 cells were cultured in DMEM as above and treated with 1% α5 composition for 48 h and 1 μM doxorubicin (DOX; Sigma-Aldrich, Milan, Italy) for 16 h (FIG. 7).
To quantify MCF7 cell growth, acid phosphatase assay was used as described [Yang T T et al. 1996 Anal Biochem. 241(1):103-8]. Briefly, MCF7 cells were placed in 96-well plates at 5,000 to 20,000 cells per well density and treated with 1% α5 (for 48 h) and 1 μM DOX (for 16 h). Culture medium was removed and each well washed once with phosphate-buffered saline (PBS, pH 7.2), and added with 100 μl buffer containing 0.1 M sodium acetate (pH 5.0), 0.1% Triton X-100, and 5 mM p-nitrophenyl phosphate (pNPP). Then, plates were placed in a 37° C. incubator for 2 h. The reaction was stopped with the addition of 10 μl 1 N NaOH, and color development was assessed at 405 nm. Non-enzymatic pNPP hydrolysis was measured in wells without cells.

## COc1cccc2c1C(=O)c1c(O)c3c(c(O)c1C2=O)C[C@@](O)(C(=O)CO)C[C@@H]3O[C@H]1C[C@H](N)[C@H](O)[C@H](C)O1 [DOX, doxorubicin]
  anti-proliferative effect of DOX together with the α5 composition: completely unaffected
